Here are results for 4 compounds from patent US20130121961A1, “TREATMENT MODALITIES TO PREVENT OR TREAT LOSS OF CARDIOVASCULAR FUNCTION IN AGING HUMANS” (THE JOHNS HOPKINS UNIVERSITY, priority 2011, published 2013).

Entries after “also recorded” stand apart in the source; their conditions may differ. Read-outs that look alike come from different tables or passages of the source.

One assay relates to IL-10(tm/tm) mouse aorta. The experiment in a line: Force-tension myography, ACH dependent vasorelaxation of phenylephrine pre-constricted IL-10(tm/tm) aortic rings. Type of assay: cell-based. Particulars: for EC50 / Emax: Mus musculus; for Effect on endothelial dependent vasorelaxation / Effect on vasoconstrictive responses to ACH: old IL-10(tm/tm) aortas. An excerpt: (§1) Animals: Age-matched IL-10 deficient (IL-10(tm/tm)); B6.129P2IL10tm1Cgn/J and control mice (C576L6; WT) were obtained from Jackson Laboratories (Bar Harbor, Me., USA). IL-10(tm/tm) mice used are homozygous for the IL10tm1Cgn targeted mutation. These mice were housed in Association for Assessment and Accreditation of Laboratory Animal Care International accredited facilities and pathogen contact prevention (prophylaxis from infections, inflammatory bowel disease and early mortality) was achieved under specific pathogen-free (SPF) barrier conditions until terminal experiments were carried out. It is known that the pro-inflammatory potential achieved by the lack of IL-10 in this mouse model can be attributed to activation of TNF-α and IL-1β synthesis via IFN-γ, which is produced in massive amounts and also is important inantigen presentation and pathogen death via activation of macrophages. Animals with any signs of inflammatory/infectious disease were ruled out of the study. The study was performed at approximately 3-4 months (young) and 9 months of age or greater (old).
(§2) Vascular endothelial function was assessed using force-tension myography. Mouse aortas were isolated and cleaned in ice-cold Krebs-Ringer-bicarbonate solution containing the following (in mM): 118.3 NaCI, 4.7 KCI, 1.6 CaCl2, 1.2 KH2 PO4, 25 NaHCO3, 1.2 MgSO4, and 11.1 dextrose. Vascular tension changes were determined as previously described (J Appl Physiol, 2000. 89(6): p. 2382-90). Briefly, one end of the aortic rings was connected to a transducer, and the other to a micromanipulator. The aorta was immersed in a bath filled with constantly oxygenated Krebs buffer at 37° C. Equal size thoracic aortic rings (2 mm) were mounted using a microscope, ensuring no damage to the smooth muscle or endothelium. The aortas were passively stretched to an optimal resting tension using the micromanipulator, after which a dose of 60 mM KCI was administered, and repeated after a wash with Krebs buffer. After these washes, the vessels were allowed to equilibrate for 20-30 min. Phenylephrine (1 μM) was administered to induce vasoconstriction. A dose-dependent response (1 nM to 10 μM), with the muscarinic agonist, ACH, was then performed. The responses were repeated in the presence of inhibitors. Relaxation responses were calculated as a percentage of tension following pre-constriction. Sigmoidal dose-response curves were fitted to data with the minimum constrained to 0.
(§3) Vascular Studies. In ex vivo myograph experiments, measured tension represents a balance between vasorelaxant and vasoconstrictor dependent function and mediators. In phenylephrine pre-constricted isolated mouse aorta, ACH stimulates the release of endothelial factors, which mediate vasorelaxation as a result of greater relaxation than constriction.

A further assay deals with WT mouse aorta. The experiment in a line: Force-tension myography, ACH dependent vasorelaxation of phenylephrine pre-constricted WT aortic rings. Type of assay: cell-based.
Excerpt: as §1, §2, §3

The mark [1] stands for this setting: pre-incubation with 3 μM indomethacin.
[2] abbreviates: pre-incubation with 5 μM nimesulide.
Where [3] appears, read: pre-incubation with 100 nM SQ29548.

As a reminder, the EC50 is the concentration that produces a half-maximal response. One may read the Emax as the greatest response seen or fitted, relative to the assay's reference. On to `CC(=O)OCC[N+](C)(C)C` [ACH, Acetylcholine], for which the EC50 with IL-10(tm/tm) mouse aorta (old IL-10(tm/tm) mice aortas, n=6, read-out: EC50 of ACH mediated vasorelaxation) turned out to be 0.0394 µM; with IL-10(tm/tm) mouse aorta (young IL-10(tm/tm) mice aortas, phenylephrine pre-constricted, read-out: EC50 of ACH dose response (vasorelaxation)) it was 0.0501 µM; with WT mouse aorta (old WT mice aortas, n=6, read-out: EC50 of ACH mediated vasorelaxation), 0.251 µM; in the assay with WT mouse aorta (young WT mice aortas, phenylephrine pre-constricted, read-out: EC50 of ACH dose response (vasorelaxation)), 0.126 µM. In addition, the Emax worked out at 30.7 ± 9.3% in the assay with IL-10(tm/tm) mouse aorta (old IL-10(tm/tm) mice aortas, n=6, read-out: Emax of ACH mediated vasorelaxation); 71.9 ± 5.7% with IL-10(tm/tm) mouse aorta (young IL-10(tm/tm) mice aortas, phenylephrine pre-constricted, read-out: Emax of ACH dose response (vasorelaxation)); 98.5 ± 14.1% in the assay with WT mouse aorta (old WT mice aortas, n=6, read-out: Emax of ACH mediated vasorelaxation); 80.9 ± 4.6% in the assay with WT mouse aorta (young WT mice aortas, phenylephrine pre-constricted, read-out: Emax of ACH dose response (vasorelaxation)).
Regarding `COc1ccc2c(c1)c(CC(=O)O)c(C)n2C(=O)c1ccc(Cl)cc1` [indomethacin], in the assay with IL-10(tm/tm) mouse aorta (setting [1]), the “Effect on endothelial dependent vasorelaxation” value is listed as “significantly improved endothelial dependent vasorelaxation” and the “Effect on vasoconstrictive responses to ACH” value (“Effect … to ACH” for short) is recorded as “abolished the vasoconstrictive responses”.
Take `CS(=O)(=O)Nc1ccc([N+](=O)[O-])cc1Oc1ccccc1` [nimesulide]: in the assay on IL-10(tm/tm) mouse aorta (setting [2]), the “Effect on endothelial dependent vasorelaxation” value is “enhanced endothelial dependent vasorelaxation; also recorded: significantly improved endothelial dependent vasorelaxation” and the “Effect … to ACH” value is “abolished the vasoconstrictive responses”.
On to `O=C(O)CCC/C=C\C[C@@H]1[C@H](CNNC(=O)Nc2ccccc2)[C@H]2CC[C@@H]1O2` [SQ29548], for which, in the assay on IL-10(tm/tm) mouse aorta (setting [3]), the “Effect on endothelial dependent vasorelaxation” value is listed as “enhanced endothelial dependent vasorelaxation; also recorded: significantly improved endothelial dependent vasorelaxation” and the “Effect … to ACH” value is “abolished the vasoconstrictive responses”.
